Assay results reported in publication PMC2206373, “Identification of an altered peptide ligand based on the endogenously presented, rheumatoid arthritis-associated, human cartilage glycoprotein-39(263–275) epitope: an MHC anchor variant peptide for immune modulation” (Arthritis Research & Therapy, 2007).
Where two headings read alike, the source gives them in different places. Non-standard residues stand in square brackets, D forms with d. Residues, ends and D or L forms follow the SMILES beside them. No end group written: not given here. Dip = N[C@H](C(=O)O)C(c1ccccc1)c1ccccc1; Tic = O=C(O)[C@@H]1Cc2ccccc2CN1

How the values were obtained:
[1] = system: popliteal lymph node cells from F265(Dip)-immunized HLA-DR4trg mice; assay: Antigen-specific cytokine production of popliteal lymph node cells from F265(Dip)-immunized mice; assay type: cell-based, mouse; details: Figure 4b
Method: (§1) Mice, obtained from L Fugger (Oxford, UK), were immunized in the hind footpads with 2 × 50 μg of purified recombinant HC gp-39, with 2 × 100 μg of the WT peptide or with 2 × 100 μg of the APL (F265(Dip); compound 28; Figure 1) mixed in IFA. Seven days later, popliteal lymph node cell suspensions (1 to 2 × 10^5 cells/well) were stimulated in vitro with HC gp-39 (50, 10 or 2 μg/ml), HC gp-39(263–275) or APL (10, 2 and 0.4 μg/ml). At 96 h, 50 μl of culture medium was harvested for analysis of antigen-specific cytokine production using Luminex technology (mouse cytokine 18 Plex Panel, catalogue no. 171-F11181, Biorad, Bio-Rad Laboratories, Hercules, CA, USA). In addition, cultures were labelled with tritiated thymidine (for 18 h) and antigen-specific proliferation was determined. We state that all animal experimentation received ethics approval and animals were treated according to the recognized guidelines.

T cell hybridoma 14G11 = assay: T hybridoma 14G11 IL-2 response; assay type: cell-based, mouse; details: for T hybridoma (SI) 14G11: Figure 1, IL-2 production, duplicate or triplicate, background 7,152 counts, ±30% of WT response = super/partial agonist; for T hybridoma (SI) 14G11 / Hybridoma response (SI) 14G11: DRB1*0401 BLCL as APC; for Hybridoma 14G11 activation (IL-2 production) in words: Figure 1 experiment, compared with WT peptide; for Hybridoma response (SI) 14G11: IL-2 by ELISA after 48 h, peptide 10 μg/ml, SI > 2 positive
Method: (§2) The T cell hybridomas, provided by G Sonderstrup (Stanford, CA, USA), were generated as described. In brief, human CD4, HLA-DRA*101/HLA-DRB*0401 triple transgenic (HLA-DR4trg) mice (devoid of I-Aβ) were immunized in the footpad with 50 μg of purified HC gp-39 mixed in incomplete Freund's adjuvant (IFA). Draining lymph nodes were isolated and T-cell hybridomas were generated by polyethylene glycol fusion of primed and in vitro antigen-restimulated lymph node cells with the AKR BW5147 fusion partner. Following fusion, growth-positive hybridoma wells were screened for reactivity to HC gp-39 and a set of 55 peptides (16 amino acids in length) covering the entire HC gp-39 sequence. HLA-DR4(B1*0401)-restricted hybridomas responsive to both the HC gp-39 protein and the immunodominant epitope 263–275 of HC gp-39 (for example, 5G11, 8B12, 14G11 and 20H5) were cloned, subcloned, characterised and selected for further study.
(§3) HC gp-39-specific IL-2 production by T hybridomas was measured in wells of round-bottomed microtiter plates. Hybridoma cells (2 to 5 × 10^4) and irradiated APC (0.5 to 1 × 10^5; 12,000 to 16,000 RAD) from the B lymphoblastoid cell line (BLCL) carrying the DRB1*0401 specificity were incubated in 150 μl volumes. Antigen was added in 50 μl volumes to duplicate wells. After 48 h, 100 μl of the culture supernatant was assayed for IL-2 production using a sandwich ELISA with Pharmingen antibodies specific for mouse IL-2. The antigen sensitivity of the hybridomas to both peptide and protein was determined (Figure 2). […] In later assays, an excess of peptide or APL (10 μg/ml), inducing maximal responses in all hybridomas, was tested.

HLA-DR4(B1*0401) = HLA-DR4(B1*0401) (Homo sapiens, UniProt P01903+P01911, A100K/A169T/F76Y/I96L/K127E/L162R/M171V/N62H/P40V/Q125Y/R42H/S133A/S149N/S66Y/V115G/V209L/W38E); assay: HLA-DR4 competition peptide binding assay; details: competition with biotinylated HA307-319 (Y309F) 50 nM, purified HLA-DR4 30 nM, pH 5, 48 h, room temperature
Method: HLA-DR bound marker peptide was separated from free marker peptide and the amount of bound marker peptide was detected and quantified by enhanced chemoluminescense. Inhibition curves were generated and the IC50 was determined. The concentration of competitor peptide inducing 50% inhibition of marker peptide binding was determined, and expressed as the 50% inhibitory concentration (IC50 in μM).

T cell hybridoma 8B12 = assay: T hybridoma 8B12 IL-2 response; assay type: cell-based, mouse; details: for T hybridoma (SI) 8B12: Figure 1, IL-2 production, duplicate or triplicate, background 16,288 counts, ±30% of WT response = super/partial agonist; for T hybridoma (SI) 8B12 / Hybridoma response (SI) 8B12: DRB1*0401 BLCL as APC; for Hybridoma 8B12 activation (IL-2 production) in words: Figure 1 experiment, compared with WT peptide; for Hybridoma response (SI) 8B12: IL-2 by ELISA after 48 h, peptide 10 μg/ml, SI > 2 positive
Method: as §2, §3

T cell hybridoma 5G11 = assay: T hybridoma 5G11 IL-2 response; assay type: cell-based, mouse; details: for T hybridoma (SI) 5G11: Figure 1, IL-2 production, duplicate or triplicate, background 29,203 counts, ±30% of WT response = super/partial agonist; for T hybridoma (SI) 5G11 / Hybridoma response (SI) 5G11: DRB1*0401 BLCL as APC; for Hybridoma response (SI) 5G11: IL-2 by ELISA after 48 h, peptide 10 μg/ml, SI > 2 positive
Method: as §2, §3

[2] = system: popliteal lymph node cells from HC gp-39(263–275)-immunized huCD4, HLA-DR4 transgenic mice; assay: Antigen-specific proliferation of popliteal lymph node cells from WT peptide-immunized mice; assay type: cell-based, mouse; details: for Ex vivo recall proliferative response in words: Figure 4a, WT peptide-immunized HLA-DR4trg mice; for Prol (SI): 96 h, tritiated thymidine, background 407 cpm, SI > 2 positive, SD not above 30%
Method: as §1

[3] = system: popliteal lymph node cells from HC gp-39(263–275)-immunized huCD4, HLA-DR4 transgenic mice; assay: Antigen-specific cytokine production of popliteal lymph node cells from WT peptide-immunized mice; assay type: cell-based, mouse; details: for Ex vivo recall IFNγ production in words / Ex vivo recall Mip1α production in words / Ex vivo recall RANTES production in words: Figure 4a, WT peptide-immunized HLA-DR4trg mice; for IFNγ concentration / MIP1α concentration / RANTES concentration: 96 h supernatant, Luminex
Method: as §1

[4] = system: popliteal lymph node cells from F265(Dip)-immunized HLA-DR4trg mice; assay: Antigen-specific proliferation of popliteal lymph node cells from F265(Dip)-immunized mice; assay type: cell-based, mouse; details: Figure 4b
Method: as §1

T cell hybridoma 20H5 = assay: T hybridoma 20H5 IL-2 response; assay type: cell-based, mouse; details: for Hybridoma response (SI) 20H5: IL-2 by ELISA after 48 h, peptide 10 μg/ml, DRB1*0401 BLCL as APC, SI > 2 positive
Method: as §2, §3

[5] = Figure 1, read-out: DRB1*0401 binding IC50
[6] = Table 1, background 8,598 counts, representative of at least three experiments
[7] = Table 1, geometric mean of two experiments, read-out: HLA-DR binding IC50
[8] = Table 1, background 7,470 counts, representative of at least three experiments
[9] = Table 1, background 8,147 counts, representative of at least three experiments
[10] = Table 1, background 35,749 counts, representative of at least three experiments

Row | Compound | IC50 (HLA-DR4(B1*0401); [5]) [nM] | IC50 (HLA-DR4(B1*0401); [7]) [nM] | In vitro recall IFNγ production in words [1] | In vitro recall Mip1α production in words [1] | In vitro recall RANTES production in words [1] | T hybridoma (SI) 14G11 (T cell hybridoma 14G11) [SI] | Hybridoma 14G11 activation (IL-2 production) in words (T cell hybridoma 14G11) | T hybridoma (SI) 8B12 (T cell hybridoma 8B12) [SI] | Hybridoma 8B12 activation (IL-2 production) in words (T cell hybridoma 8B12) | T hybridoma (SI) 5G11 (T cell hybridoma 5G11) [SI] | Ex vivo recall proliferative response in words [2] | Ex vivo recall IFNγ production in words [3] | Ex vivo recall Mip1α production in words [3] | Ex vivo recall RANTES production in words [3] | In vitro recall proliferative response in words [4] | Hybridoma response (SI) 14G11 (T cell hybridoma 14G11; [6]) [SI] | Hybridoma response (SI) 8B12 (T cell hybridoma 8B12; [8]) [SI] | Hybridoma response (SI) 5G11 (T cell hybridoma 5G11; [9]) [SI] | Hybridoma response (SI) 20H5 (T cell hybridoma 20H5; [10]) [SI] | also measured
1 | CC(C)C[C@H](NC(=O)[C@@H](NC(=O)[C@@H]1Cc2ccccc2CN1C(=O)[C@H](CO)NC(=O)[C@@H](N)CCCNC(=N)N)[C@@H](C)O)C(=O)N[C@@H](C)C(=O)N[C@@H](CO)C(=O)N[C@@H](CO)C(=O)N[C@@H](CCC(=O)O)C(=O)N[C@H](C(=O)NCC(=O)N[C@H](C(=O)NCC(=O)O)C(C)C)[C@@H](C)O [Compound 27] (H-RS[Tic]TLASSETGVG-OH) | 21 | – | failed to induce significant levels | failed to induce significant levels | failed to induce significant levels | 21 | partial activation | 8 | partial activation | 12 | comparable proliferative responses | increased production | increased production | increased production | – | – | – | – | – | Hybridoma 5G11 activation (IL-2 production) in words (T cell hybridoma 5G11; Figure 1 experiment, compared with WT peptide): partial activation
2 | RSATLASSETGVG [Compound 12] | – | – | – | – | – | – | – | – | – | – | – | – | – | – | – | – | – | – | – | Recognition by hybridoma 14G11 in words (T cell hybridoma 14G11; Table 2): not recognized; Hybridoma response (SI) 14G11 (T cell hybridoma 14G11; Table 2, background 10,131 counts, SD not above 15%): 2 SI; IC50 (HLA-DR4(B1*0401); Table 2, read-out: HLA-DR binding IC50): > 35000 nM; Reactivity of hybridoma 8B12 in words (T cell hybridoma 8B12; Table 2): affected to a lesser extent; Hybridoma response (SI) 8B12 (T cell hybridoma 8B12; Table 2, background 8,773 counts, SD not above 15%): 6 SI; Recognition by hybridoma 5G11 in words (T cell hybridoma 5G11; Table 2): not recognized; Hybridoma response (SI) 5G11 (T cell hybridoma 5G11; Table 2, background 17,238 counts, SD not above 15%): 2 SI; Polyclonal response (proliferation and cytokine production) in words ([2]; Table 3, lymph node cells of WT peptide-immunized HLA-DR4trg mice): did not elicit a significant response; Prol (SI) ([2]; peptide 2 μg/ml): 1 SI; Prol (SI) ([2]; peptide 10 μg/ml): 3 SI; IFNγ concentration ([3]; peptide 2 μg/ml): <5 pg/mL; MIP1α concentration ([3]; peptide 2 μg/ml): <24 pg/mL; RANTES concentration ([3]; peptide 2 μg/ml): <6 pg/mL; IFNγ concentration ([3]; peptide 10 μg/ml): <5 pg/mL; MIP1α concentration ([3]; peptide 10 μg/ml): 27 pg/mL; RANTES concentration ([3]; peptide 10 μg/ml): 9 pg/mL; Reactivity of hybridoma 20H5 in words (T cell hybridoma 20H5; Table 2): only slightly affected; Hybridoma response (SI) 20H5 (T cell hybridoma 20H5; Table 2, background 290,666 counts, SD not above 15%): 4 SI
3 | TLASSETGVG [Compound 7] | – | > 100000 | – | – | – | – | – | – | – | – | – | – | – | – | – | 1 | 1 | 1 | 5 | –
4 | human cartilage glycoprotein-39 [HC gp-39 protein] | – | – | failed to induce significant levels | failed to induce significant levels | failed to induce significant levels | – | – | – | – | – | – | – | – | – | somewhat less | – | – | – | – | –

Continued, in another order:

Row | IC50 (HLA-DR4(B1*0401); [5]) [nM] | IC50 (HLA-DR4(B1*0401); [7]) [nM] | Compound | In vitro recall IFNγ production in words [1] | In vitro recall Mip1α production in words [1] | In vitro recall RANTES production in words [1] | T hybridoma (SI) 14G11 (T cell hybridoma 14G11) [SI] | Hybridoma 14G11 activation (IL-2 production) in words (T cell hybridoma 14G11) | T hybridoma (SI) 8B12 (T cell hybridoma 8B12) [SI] | Hybridoma 8B12 activation (IL-2 production) in words (T cell hybridoma 8B12) | T hybridoma (SI) 5G11 (T cell hybridoma 5G11) [SI] | Ex vivo recall proliferative response in words [2] | Ex vivo recall IFNγ production in words [3] | Ex vivo recall Mip1α production in words [3] | Ex vivo recall RANTES production in words [3] | In vitro recall proliferative response in words [4] | Hybridoma response (SI) 14G11 (T cell hybridoma 14G11; [6]) [SI] | Hybridoma response (SI) 8B12 (T cell hybridoma 8B12; [8]) [SI] | Hybridoma response (SI) 5G11 (T cell hybridoma 5G11; [9]) [SI] | Hybridoma response (SI) 20H5 (T cell hybridoma 20H5; [10]) [SI] | also measured
5 | 10 | – | CC(C)C[C@H](NC(=O)[C@@H](NC(=O)[C@@H](NC(=O)[C@H](CO)NC(=O)[C@@H](N)CCCNC(=N)N)C(c1ccccc1)c1ccccc1)[C@@H](C)O)C(=O)N[C@@H](C)C(=O)N[C@@H](CO)C(=O)N[C@@H](CO)C(=O)N[C@@H](CCC(=O)O)C(=O)N[C@H](C(=O)NCC(=O)N[C@H](C(=O)NCC(=O)O)C(C)C)[C@@H](C)O [Compound 28] (H-RS[Dip]TLASSETGVG-OH) | barely detectable | barely detectable | barely detectable | 6 | partial activation | 5 | partial activation | 29 | comparable proliferative responses | lesser | unaltered | unaltered | good proliferative activity | – | – | – | – | –
6 | – | > 100000 | LASSETGVG [Compound 8] | – | – | – | – | – | – | – | – | – | – | – | – | – | 1 | 1 | 1 | 1 | –
